The text below walks through data of US9034907B2, “Inhibitors of glutaminyl cyclase” (Probiodrug AG, priority 2007, dated 2015).

Each structure is given as a SMILES string.

The target in one data set is glutaminyl cyclase (QC) (Homo sapiens (Human), UniProt Q16769). The experiment in a line: QC inhibitor assay (fluorometric / spectrophotometric QC activity assay with inhibitor added). Particulars: 30° C.
glutaminyl cyclase (QC), sequence (Q16769 29-361): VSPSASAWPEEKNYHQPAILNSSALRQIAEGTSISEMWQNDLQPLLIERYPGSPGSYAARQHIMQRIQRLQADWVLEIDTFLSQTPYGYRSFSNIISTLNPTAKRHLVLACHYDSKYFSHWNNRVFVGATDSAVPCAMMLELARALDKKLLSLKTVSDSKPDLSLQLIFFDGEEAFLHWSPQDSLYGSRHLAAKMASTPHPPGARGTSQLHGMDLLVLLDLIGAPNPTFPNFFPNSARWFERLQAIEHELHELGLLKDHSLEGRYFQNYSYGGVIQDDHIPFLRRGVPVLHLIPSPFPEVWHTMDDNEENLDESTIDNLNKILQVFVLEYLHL

Method for glutaminyl cyclase (QC): All measurements were performed with a BioAssay Reader HTS-7000Plus for microplates (Perkin Elmer) at 30° C. QC activity was evaluated fluorometrically using H-Gln-βNA. The samples consisted of 0.2 mM fluorogenic substrate, 0.25 U pyroglutamyl aminopeptidase (Unizyme, Hørsholm, Denmark) in 0.2 M Tris/HCl, pH 8.0 containing 20 mM EDTA and an appropriately diluted aliquot of QC in a final volume of 250 μl. Excitation/emission wavelengths were 320/410 nm. The assay reactions were initiated by addition of glutaminyl cyclase. QC activity was determined from a standard curve of β-naphthylamine under assay conditions. One unit is defined as the amount of QC catalyzing the formation of 1 μmol pGlu-βNA from H-Gln-βNA per minute under the described conditions.
In a second fluorometric assay, QC was activity determined using H-Gln-AMC as substrate. Reactions were carried out at 30° C. utilizing the NOVOStar reader for microplates (BMG labtechnologies). […] The kinetic data were evaluated using GraFit software.
Samples consisted of the respective QC substrate, 0.3 mM NADH, 14 mM α-Ketoglutaric acid and 30 U/ml glutamate dehydrogenase in a final volume of 250 μl. […] All samples were measured at 30° C., using either the [sequence]luor Plus or the Sunrise (both from TECAN) reader for microplates. Kinetic data was evaluated using GraFit software. […]

As usually defined, the melting point is the temperature of the solid-liquid transition. Turning to `Cc1csc2c(=O)n(CCCn3ccnc3)c(=S)[nH]c12`, the melting point fell in the range of 225 to 227 °C.
Same read-out and setting: the result for `O=c1c2c3c(sc2[nH]c(=S)n1CCCn1ccnc1)CCCC3` reads 118 to 120 °C.
One may read the Ki as a measure of affinity in units of concentration, obtained from inhibition or displacement. Low values mean tighter binding, high ones weaker binding. `O=c1c2ccccc2[nH]c(=S)n1CCCn1ccnc1` [Example 28, 2,3-dihydro-3-(3-(1H-imidazol-1-yl)propyl)-2-thioxoquinazolin-4(1H)-one]: the affinity on glutaminyl cyclase (QC) (competitive inhibition fit of progress curves) corresponds to a Ki of 0.3 µM. That is a sub-micromolar value.
Broadly, the IC50 is the concentration that gives 50% inhibition. High values mean lower potency, low ones higher potency. As for `O=c1c2ccccc2[nH]c(=S)n1-c1ccc2[nH]cnc2c1` [Example 43, 3-(1H-benzo[d]imidazol-5-yl)-2,3-dihydro-2-thioxo-quinazolin-4(1H)-one], the concentration for half-maximal inhibition (IC50) on glutaminyl cyclase (QC) (QC inhibition) was 121 µM.
